Measured values as given in paper PMC8421619, “Investigation of MDMA Inhibitory Effect on CytochromeP450 3A4 in Isolated Perfused Rat Liver Model Using Tramadol” (Advanced Pharmaceutical Bulletin, 2020).
Marks after values point to notes of the source that are not given here.

Legend:
[1] = system: CYP2D6; test: Isolated perfused rat liver, tramadol O-demethylation to M1 after MDMA or paroxetine pretreatment; assay type: in vivo; conditions: tramadol 1 µg/mL, n=4; for Metabolite ratio M1 % decrease compared to the control group: AUC0-t M1 / AUC0-t tramadol
[2] = system: CYP3A4; test: Isolated perfused rat liver, tramadol N-demethylation to M2 after MDMA or paroxetine pretreatment; assay type: in vivo; conditions: regular doses of MDMA (1-10 mg/kg)
[3] = Isolated perfused rat liver, tramadol AUC in perfusate after MDMA or paroxetine pretreatment; assay type: in vivo; conditions: MDMA 1, 5 and 10 mg/kg i.p.; tramadol 1 µg/mL
[4] = set-up: method as in doi:10.1007/s002130000545, PMID 12404536, PMID 12869661; conditions: following ecstasy consumption; cited from earlier work

SMILES	AUC M1 % decrease compared to the control group ([1]; paroxetine 0.266 mg/kg oral, three consecutive days, listed as PXL)	Metabolite ratio M1 % decrease compared to the control group ([1]; paroxetine 0.266 mg/kg oral, three days) [%]	Metabolite ratio M1 % decrease compared to the control group ([1]; paroxetine 0.266 mg/kg oral, three days, listed as PXL)	AUC M1 % decrease compared to the control group ([1]; MDMA 1 mg/kg i.p. 1 h before liver perfusion) [%]	Metabolite ratio M1 % decrease compared to the control group ([1]; MDMA 1 mg/kg i.p.) [%]	AUC M1 % decrease compared to the control group ([1]; MDMA 10 mg/kg i.p. 1 h before liver perfusion) [%]	Metabolite ratio M1 % decrease compared to the control group ([1]; MDMA 10 mg/kg i.p.) [%]	CYP3A4 activity inhibition [2]	tramadol AUC compared to the control group [3]	duration of positive psychological effects [4]
Fc1ccc([C@@H]2CCNC[C@H]2COc2ccc3c(c2)OCO3)cc1 [paroxetine]	40* %	30	30* %	–	–	–	–	–	–	–
CNC(C)Cc1ccc2c(c1)OCO2 (stereo not shown) [MDMA, methylenedioxymethamphetamine]	–	–	–	38	29	50	45	cannot inhibit	no significant differences	3-6 hours
